Like-named read-outs stand apart in the source and are kept apart here.
How the values were obtained:
[1] = in vitro; details: human, Caco-2, pH 7.4
Summary of the method: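 Caco-2 monolayers, checked by TEER with Lucifer yellow as marker, were dosed with 10 μM compound in HBSS pH 7.4 in A-to-B and B-to-A directions. Incubation was 90 min at 37° C, in duplicate. Samples were quantified by LC-MS/MS and Papp calculated.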

[2] = Mouse brain uptake assay (MBUA), 3 mg/kg IV, 0-24 h, 4 time points; assay type: in vivo, male CD1 mice; details: for Kp / AUC(0-t) / Kp uu / clearance / half-life: male; for Kp: CD1, mouse, brain/plasma, iv, 3 mg/kg; for AUC(0-t) / Kp uu: CD1; for AUC(0-t) / Kp uu / fraction unbound / clearance / half-life: mouse; for AUC(0-t) / Kp uu / clearance / half-life: 3 mg/kg IV, 0-24 h; for Kp uu: unbound brain/unbound plasma; for clearance / half-life: CD1, plasma, 4 time points; for half-life: read-out: t½ (converted)
Description: Example 38: Pharmacokinetics and Brain Penetration Experiment to Determine Brain and Plasma Concentrations of Compounds after IV Administration to Male CD1 Mice
The study design (9 animals) consisted of administrating the drug (IV: 3 mg/kg (5 mL/kg) via tail vein injection) and collecting samples at terminal bleeding for plasma and brain at 0.083, 0.5 and 1 h. The IV dosing solution was prepared in 50 mM citrate buffer (pH 4.0) at 0.6 mg/mL. The blood collection was performed as follows: the animal was restrained manually and approximately 150 μL blood/time point was collected into a dipotassium EDTA tube via retro orbital puncture under anesthesia with isoflurane. The blood sample was put on ice and centrifuged to obtain a plasma sample (2000 g, 5 min under 4° C.) within 15 minutes. The brain collection was performed as follows: a mid-line incision was made in the animal's scalp and the skin was retracted. Using small bone cutters and rongeurs, the skull overlying the brain was removed. The brain was removed using a spatula and the brain rinsed with cold saline. The brain was placed in screw-top tubes, and the tubes were stored at −70° C. until analysis.
An aliquot of 30 μL sample was added to 150 μL MeCN containing 50 ng/mL IS (Dexamethasone). The mixture was vortexed for 5 min and centrifuged at 14,000 rpm for 5 min. An aliquot of 5 μL supernatant was injected for LC-MS/MS analysis.
An aliquot of 30 μL brain homogenate (brain:PBS=1:3, w/v) sample was added to 150 μL IS in MeCN (Dexamethasone, 50 ng/mL). The mixture was vortexed for 5 min and centrifuged at 14,000 rpm for 5 min. An aliquot of 5 μL supernatant was injected for LC-MS/MS analysis.
The sample analysis was performed on LCMS/MS-003 (API4000, triple quadruple) under the following conditions: positive ion, ESI, MRM detection using dexamethasone as internal standard. HPLC conditions: mobile phase A: H2O (0.025% formic acid (FA) with 1 mM NH4OAc); mobile phase B: MeOH (0.025% FA with 1 mM NH4OAc) on Waters X-Bridge C18 (2.1×50 mm, 2.5 μm) column at 60° C.
A similar experiment was performed with 4 time points taken from 0-24 h.

[3] = target: T1, Jurkat cells expressing CXCR4 (Homo sapiens, UniProt P61073); experiment: Chemokine (CXCL12-AF647) binding inhibition assay; details: CXCL12-AF647 25 ng/mL, read-out: IC50 CXCL-12 binding Jurkat
T1 construct: endogenous in cells; host or cells: Jurkat
Summary of the method: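 Cells in HBSS, 20 mM HEPES, 0.2% BSA, pH 7.4, preincubated 15 min at room temperature with compound, then 25 ng/mL CXCL12-AF647 for 30 min. After washing and paraformaldehyde fixation, bound ligand read by flow cytometry; percent inhibition calculated from MFI relative to unlabeled and ligand-only controls.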

[4] = target: T2, CXCR-4 transfected U87 cell line (U87.CXCR4) (Homo sapiens, UniProt P61073); experiment: Intracellular CXCL-12-induced calcium mobilization assay (FLIPR); assay type: cell-based; details: U87.CXCR4 cells; CXCL-12 25-50 ng/mL; compound added 15 min before; read-out: IC50 CXCL-12 Ca^2+ flux U87.CXCR4+
T2 construct: expressed in transfected cells; host or cells: U87 (U87.CXCR4)
Summary of the method: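 U87 cells stably expressing human CXCR4, loaded with Fluo-2 AM (4 μM final) for 45 min at 37 °C in HBSS/20 mM HEPES/0.2% BSA, pH 7.4. Calcium flux triggered by CXCL-12 (25-50 ng/mL) was followed by FLIPR fluorescence over time at 37 °C.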

[5] = fraction unbound to brain proteins, read-out: Fu (b) %
[6] = fraction unbound to plasma proteins, read-out: Fu (p) %

T1 sequence (P61073 whole entry): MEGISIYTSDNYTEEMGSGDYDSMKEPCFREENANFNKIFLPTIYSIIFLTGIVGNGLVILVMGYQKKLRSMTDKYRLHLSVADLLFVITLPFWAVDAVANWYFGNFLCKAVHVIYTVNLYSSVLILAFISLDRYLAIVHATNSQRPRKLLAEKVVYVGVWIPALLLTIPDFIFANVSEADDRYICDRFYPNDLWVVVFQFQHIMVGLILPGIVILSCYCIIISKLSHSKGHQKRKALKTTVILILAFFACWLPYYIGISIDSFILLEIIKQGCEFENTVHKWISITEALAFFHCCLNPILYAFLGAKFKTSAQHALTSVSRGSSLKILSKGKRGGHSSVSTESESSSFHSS
T2 sequence (P61073 whole entry): as above

| SMILES | Papp A→B at 90 min, 10 μM [1] | Papp B→A at 90 min, 10 μM [1] | efflux ratio at 90 min, 10 μM [1] | Kp [2] | AUC(0-t) ([2]; brain, read-out: AUClast (b)) | AUC(0-t) ([2]; plasma, read-out: AUClast (P)) | Kp uu [2] | fraction unbound [2, 5] | fraction unbound [2, 6] | IC50 [3] | IC50 [4] | clearance [2] | half-life [2] |
| --- | --- | --- | --- | --- | --- | --- | --- | --- | --- | --- | --- | --- | --- |
| Cc1cccnc1[C@@H]1CCC[C@H](c2nc3cccc(N4CCN(C(C)C)CC4)c3[nH]2)N1 [I-128] | 0.1 to 10 ×10⁻⁶ cm/s | 10 to 30 ×10⁻⁶ cm/s | 0.1 to 10 | 2.5 | 3940 ng·h/mL | 1580 ng·h/mL | 0.2 | 0.011 | 0.135 | 0.01 to 100 nM | 0.01 to 100 nM | – | – |
| CO[C@H]1C[C@H](c2nc3cccc(N4CCN(C)CC4)c3[nH]2)N(C)[C@H](c2ncccc2C)C1 [I-103] | 10 to 30 ×10⁻⁶ cm/s | 10 to 30 ×10⁻⁶ cm/s | 0.1 to 10 | 7.3 | 3280 ng·h/mL | 449 ng·h/mL | – | – | – | 0.01 to 100 nM | 100 to 1000 nM | 102 mL/min/kg | 16.7 min |
| CN1[C@@H](c2nc3cccc(N4CCN5CCCC5C4)c3[nH]2)CCC[C@H]1c1ncccc1Cl (some centres unmarked) [I-96] | – | – | – | 31.2 | 15300 ng·h/mL | 14800 ng·h/mL | 11.3 | 0.012 | 0.033 | 0.01 to 100 nM | 100 to 1000 nM | 102 mL/min/kg | 13.7 min |
| Cc1cccnc1[C@@H]1CCC[C@H](c2nc3cccc(N4CCN5CCCC5C4)c3[nH]2)N1C (some centres unmarked) [I-66] | 10 to 30 ×10⁻⁶ cm/s | 10 to 30 ×10⁻⁶ cm/s | 0.1 to 10 | 44.5 | 9320 ng·h/mL | 209 ng·h/mL | – | – | – | 0.01 to 100 nM | 0.01 to 100 nM | 212 mL/min/kg | 18.6 min |
| Cc1cc(F)cnc1[C@@H]1CCC[C@H](c2nc3cccc(N4CCN(C)CC4)c3[nH]2)N1C [I-69] | 10 to 30 ×10⁻⁶ cm/s | 10 to 30 ×10⁻⁶ cm/s | 0.1 to 10 | 15 | 4080 ng·h/mL | 272 ng·h/mL | 1.98 | 0.016 | 0.121 | 0.01 to 100 nM | 0.01 to 100 nM | 168 mL/min/kg | 16.9 min |
| Cc1cccnc1[C@@H]1CCC[C@H](c2nc3ccccc3[nH]2)N1Cc1ccccc1-n1cccn1 [I-21, 2-((2R,6S)-1-(2-(1H-pyrazol-1-yl)benzyl)-6-(3-methylpyridin-2-yl)piperidin-2-yl)-1H-benzo[d]imidazole] | 10 to 30 ×10⁻⁶ cm/s | 10 to 30 ×10⁻⁶ cm/s | 0.1 to 10 | – | – | – | – | – | – | 0.01 to 100 nM | 0.01 to 100 nM | – | – |
| CCN1CCC(Oc2cccc3nc([C@H]4CCC[C@@H](c5ncccc5C)N4C)[nH]c23)CC1 [I-43] | 0.1 to 10 ×10⁻⁶ cm/s | 10 to 30 ×10⁻⁶ cm/s | 0.1 to 10 | – | – | – | – | – | – | 0.01 to 100 nM | 0.01 to 100 nM | – | – |
| CN1CCC(n2c([C@H]3CCC[C@@H](c4ncccc4Cl)N3C)nc3ccccc32)CC1 [I-134] | 10 to 30 ×10⁻⁶ cm/s | 10 to 30 ×10⁻⁶ cm/s | 0.1 to 10 | – | – | – | – | – | – | 0.01 to 100 nM | 0.01 to 100 nM | – | – |
| Cc1cccnc1[C@@H]1CCC[C@H](c2nc3cccc(N4C5CCC4CN(C)C5)c3[nH]2)N1C [I-57] | 10 to 30 ×10⁻⁶ cm/s | 10 to 30 ×10⁻⁶ cm/s | 0.1 to 10 | – | – | – | – | – | – | 0.01 to 100 nM | 0.01 to 100 nM | – | – |
| Cc1cccnc1[C@@H]1CCC[C@H](c2nc3cccc(N4CC5CC4CN5C)c3[nH]2)N1C (some centres unmarked) [I-110] | 0.1 to 10 ×10⁻⁶ cm/s | 10 to 30 ×10⁻⁶ cm/s | 0.1 to 10 | – | – | – | – | – | – | 0.01 to 100 nM | 100 to 1000 nM | – | – |
| CN1CCN(c2cccc3nc([C@H]4CCC[C@@H](c5ncccc5Cl)N4)[nH]c23)CC12CC2 [I-133] | 10 to 30 ×10⁻⁶ cm/s | 10 to 30 ×10⁻⁶ cm/s | 0.1 to 10 | – | – | – | – | – | – | 0.01 to 100 nM | ≥ 1000 nM | – | – |
| Cc1cccnc1[C@@H]1CCC[C@H](c2nc3cccc(N4C[C@@H](C)N[C@@H](C)C4)c3[nH]2)N1C [I-51] | 0.1 to 10 ×10⁻⁶ cm/s | 10 to 30 ×10⁻⁶ cm/s | 0.1 to 10 | – | – | – | – | – | – | 0.01 to 100 nM | 0.01 to 100 nM | – | – |
| Cc1cccnc1[C@@H]1CCC[C@H](c2nc3cccc(N4CCN(C)C(C)C4)c3[nH]2)N1C (some centres unmarked) [I-53] | 10 to 30 ×10⁻⁶ cm/s | 10 to 30 ×10⁻⁶ cm/s | 0.1 to 10 | – | – | – | – | – | – | 0.01 to 100 nM | 0.01 to 100 nM | – | – |
| Cc1cccnc1[C@@H]1CCC[C@H](c2nc3cccc(N4CCNC(C)C4)c3[nH]2)N1C (some centres unmarked) [I-50] | 0.1 to 10 ×10⁻⁶ cm/s | 10 to 30 ×10⁻⁶ cm/s | 10 to 30 | – | – | – | – | – | – | 0.01 to 100 nM | 0.01 to 100 nM | – | – |
| Cc1cccnc1[C@@H]1CCC[C@H](c2nc3ccccc3n2CC2CCN(C)CC2)N1CC(F)(F)F [I-26] | 10 to 30 ×10⁻⁶ cm/s | 10 to 30 ×10⁻⁶ cm/s | 0.1 to 10 | – | – | – | – | – | – | ≥ 1000 nM | ≥ 1000 nM | – | – |
| Cc1cccnc1[C@@H]1CCC[C@H](c2nccn2CC2CCN(C)CC2)N1 [I-175] | 0.1 to 10 ×10⁻⁶ cm/s | 10 to 30 ×10⁻⁶ cm/s | 10 to 30 | – | – | – | – | – | – | 0.01 to 100 nM | 100 to 1000 nM | – | – |
| Cc1cccnc1[C@@H]1CCC[C@H](c2nc3cccc(N4CCN5CCCC5C4)c3[nH]2)N1 (some centres unmarked) [I-126] | 0.1 to 10 ×10⁻⁶ cm/s | 10 to 30 ×10⁻⁶ cm/s | 0.1 to 10 | – | – | – | – | – | – | 0.01 to 100 nM | 0.01 to 100 nM | – | – |
| CN1CCC(n2ccnc2[C@H]2CCC[C@@H](c3ccccn3)N2)CC1 [I-180] | 0.1 to 10 ×10⁻⁶ cm/s | 10 to 30 ×10⁻⁶ cm/s | 0.1 to 10 | – | – | – | – | – | – | ≥ 1000 nM | ≥ 1000 nM | – | – |

— US10988465B2, “CXCR4 inhibitors and uses thereof” (X4 Pharmaceuticals, Inc., priority 2016, dated 2021)
